According to ChEMBL document CHEMBL1121966, “(2R*,3S*)-1-[125I]Iodo-2,3-bis(4-hydroxyphenyl)pentane ([125I]iodonorhexestrol) and (2R*,3S*)-1-[77Br]Bromo-2,3-bis(4-hydroxyphenyl)pentane ([77Br]bromonorhexestrol), two gamma-emitting estrogens that show receptor-mediated uptake by target tissues in vivo” (1982):

Experiment: Solvolytic stability of compound was measured relative to p-hydroxyphenethyl bromide
Type: functional, Rattus norvegicus

SMILES: Oc1ccc(CCBr)cc1
- 1/krel: 1
